Measurements as given in patent US10231953B2, “Inhibitors of bromodomains” (Zenith Epigenetics Ltd., priority 2014, dated 2019).
“Also recorded” adds a separate entry of the source.

Assays:
[1] = biological target: T1, Brd4 bromodomain 1 (BRD4(1)) (Homo sapiens, UniProt O60885); test: Inhibition of tetra-acetylated histone H4 binding to BET bromodomain, HTRF/FRET; conditions: HTRF, 2 h incubation at room temperature
T1 construct: made in house; host or cells: E. coli BL21(DE3)
Experimental: Proteins are cloned and overexpressed with a N-terminal 6×His tag, then purified by nickel affinity followed by size exclusion chromatography. Briefly, E. coli BL21(DE3) cells are transformed with a recombinant expression vector encoding N-terminally Nickel affinity tagged bromodomains from Brd2, Brd3, Brd4. Cell cultures were incubated at 37° C. with shaking to the appropriate density and induced overnight with IPTG. The supernatant of lysed cells was loaded onto Ni-IDA column for purification. Eluted protein was pooled, concentrated and further purified by size exclusion chromatography. Fractions representing monomeric protein were pooled, concentrated, aliquoted, and frozen at −80° C. for use in subsequent experiments.
Binding of tetra-acetylated histone H4 and BET bromodomains is confirmed by a Homogenous Time Resolved Fluorescence Resonance Energy Transfer (HTRF®) method, N-terminally His-tagged bromodomains (200 nM) and biotinylated tetra-acetylated historic H4 peptide (25-50 nM, Millipore) are incubated in the presence of Europium Cryptate-labeled streptavidin (Cisbio Cat. #610SAKLB) and XL665-labeled monoclonal anti-His antibody (Cisbio Cat. #61HISXLB) in a white 96 well microtiter plate (Greiner). For inhibition assays, serially diluted test compound is added to these reactions in a 0.2% final concentration of DMSO. Duplicate wells are used for each concentration tested. Final buffer concentrations are 30 mM HEPES pH 7.4, 30 mM NaCl, 0.3 mM CHAPS, 20 mM phosphate pH 7.0, 320 mM KF, 0.08% BSA. After a 2 h incubation at room temperature, fluorescence is measured at 665 and 620 nm with a SynergyH4 plate reader (Biotek). The binding inhibitory activity is shown by a decrease in 665 nm relative to 620 nm fluorescence. IC50 values are determined from a dose response curve.

MV4-11 cells = test: Washout proliferation: effect of covalent binding on durability of proliferation; format: cell-based, Human; conditions: IC90 concentration for 24 h, then washout; for Percent proliferation relative to DMSO, 24 h: 24 h post washout; for Percent proliferation relative to DMSO, 48 h: 48 h post washout; for Percent proliferation relative to DMSO, 72 h: 72 h post washout
Experimental: MV4-11 cells (CRL-9591) were plated at a density of 5×10^4 cells per well in 96 well flat bottom plates and treated with IC90 concentration of covalent vs. non-covalent control compound or DMSO (0.1%) in IMDM media containing 10% FBS and penicillin/streptomycin. Triplicate wells were used for each concentration and a well containing only media is used as a control. Plates were incubated at 37° C., 5% CO2 for 24 h after which the compounds were removed, replaced with media, and proliferation was measured at 24, 48 and 72 hours post washout by adding 20 μL of the Cell Titer Aqueous One Solution (Promega) to each well and incubated at 37° C., 5% CO2 for an additional 3-4 h. The absorbance was read at 490 nm in a spectrophotometer and the percentage of cell titer relative to DMSO-treated cells was calculated after correcting for background by subtracting the blank well's signal. IC50 values are calculated using the GraphPad Prism software.

BET bromodomains = test: Thermal shift assay to monitor covalent binding to BET bromodomains; conditions: 100 μM compound, 5 μM protein, 30 minutes or 4 hours at room temperature
Experimental: 5 μM of purified bromodomain protein was incubated with 5× SYPRO® Orange (Molecular Probes) at a final concentration of 20 mM HEPES pH 7.4, 100 mM NaCl in the presence of 100 μM compound or DMSO (0.2%) in a fast 96 well optical plate (Applied Biosystems). Samples were incubated at room temperature for 30 minutes or 4 hours and ramped from 25° C. to 95° C. in a ViiA7 real-time PCR machine (Applied Biosystems). The resulting fluorescence data was analyzed and melting temperatures calculated using Protein Thermal Shift™ Software v1.0 (Life Technologies). A thermal shift indicates covalent binding of the inhibitor to the protein.

c-myc = test: Inhibition of cMYC expression in cancer cell lines (mRNA, real-time PCR); format: cell-based; conditions: Human AML MV4-11 cells, 3 h
Experimental: MV4-11 cells (CRL-9591) were plated at a density of 2.5×10^4 cells per well in 96 well U-bottom plates and treated with increasing concentrations of test compound or DMSO) (0.1%) in IMDM media containing 10% FBS and penicillin/streptomycin, and incubated for 3 h at 37° C. Triplicate wells were used for each concentration. Cells were pelleted by centrifugation and harvested using the mRNA Catcher PLUS kit according to manufacturer's instructions. The eluted mRNA isolated was then used in a one-step quantitative real-time PCR reaction, using components of the RNA UltraSense™ One-Step Kit (Life Technologies) together with Applied Biosystems TaqMan® primer-probes for cMYC and Cyclophilin. Real-time PCR plates were run on a ViiA™7 real time PCR machine (Applied Biosystems), data was analyzed, normalizing the Ct values for cMYC to an internal control, prior to determining the fold expression of each sample, relative to the control.

Human AML MV-4-11 cells = test: Inhibition of cell proliferation in cancer cell lines; format: cell-based; conditions: MV4-11, 72 h
Experimental: MV4-11 cells (CRL-9591) were plated at a density of 5×10^4 cells per well in 96 well flat bottom plates and treated with increasing concentrations of test compound or DMSO (0.1%) in IMDM media containing 10% FBS and penicillin/streptomycin. Triplicate wells were used for each concentration and a well containing only media was used as a control. Plates were incubated at 37° C., 5% CO2 for 72 h before adding 20 μL of the CellTiter Aqueous One Solution (Promega) to each well and incubated at 37° C., 5% CO2 for an additional 3-4 h. The absorbance was read at 490 nm in a spectrophotometer and the percentage of cell titer relative to DMSO-treated cells was calculated after correcting for background by subtracting the blank well's signal. IC50 values were calculated using the GraphPad Prism software.

hIL-6 mRNA = test: Inhibition of hIL-6 mRNA transcription in LPS-stimulated U937 cells; format: cell-based; conditions: Homo sapiens, U-937; U937 cells differentiated with PMA, 1 h pretreatment, LPS 3 h; read-out: IL-6 activity
Experimental: Human leukemic monocyte lymphoma U937 cells (CRL-1593.2) were plated at a density of 3.2×10^4 cells per well in a 96-well plate in 100 μL RPMI-1640 containing 10% FBS and penicillin/streptomycin, and differentiated into macrophages for 3 days in 60 ng/mL PMA ([…]) at 37° C. in 5% CO2 prior to the addition of compound. The cells were pretreated for 1 h with increasing concentrations of test compound in 0.1% DMSO prior to stimulation with 1 ug/mL lipopolysaccharide from Escherichia coli. Triplicate wells were used for each concentration. The cells were incubated at 37° C., 5% CO2 for 3 h before the cells were harvested. At time of harvest, media was removed and cells were rinsed in 200 μL PBS. Cells were harvested using the mRNA Catcher PLUS kit according to manufacturer's instructions. The eluted mRNA was then used in a one-step quantitative real-time PCR reaction using components of the RNA UltraSense™ One-Step Kit (Life Technologies) together with Applied Biosystems TaqMan® primer-probes for hIL-6 and Cyclophilin. Real-time PCR plates were run on a ViiA™7 real time PCR machine (Applied Biosystems), data was analyzed, normalizing the Ct values for hIL-6 to an internal control, prior to determining the fold expression of each sample, relative to the control.

IC50 [1] | IC50 (c-myc) | IC50 (Human AML MV-4-11 cells) | IC50 (hIL-6 mRNA) | Compound | Percent proliferation relative to DMSO, 0 h (MV4-11 cells) | Percent proliferation relative to DMSO, 24 h (MV4-11 cells) | Percent proliferation relative to DMSO, 48 h (MV4-11 cells) | Percent proliferation relative to DMSO, 72 h (MV4-11 cells) | Thermal shift: covalent binding to bromodomain protein (BET bromodomains)
≤ 300 nM | 300 to 3000 nM |  |  | Cc1noc(C)c1-c1cnc2nc(C)n(Cc3ccc(CCCl)cc3)c2c1 [Example 5, 4-(1-(4-(2-Chloroethyl)benzyl)-2-methyl-1H-imidazo[4,5-b]pyridin-6-yl)-3,5-dimethylisoxazole] |  |  |  |  | 
≤ 300 nM |  |  |  | Cc1noc(C)c1-c1cnc2nc(C)n(Cc3ccc(C(=O)CCl)cc3)c2c1 [Example 6, 2-Chloro-1-(4-((6-(3,5-dimethylisoxazol-4-yl)-2-methyl-1H-imidazo[4,5-b]pyridin-1-yl)methyl)phenyl)ethanone] |  |  |  |  | 
≤ 300 nM |  |  |  | Cc1noc(C)c1-c1cnc2nc(C)n(Cc3ccc(CC4CO4)cc3)c2c1 (stereo not drawn) [Example 7, 3,5-Dimethyl-4-(2-methyl-1-(4-(oxiran-2-ylmethyl)benzyl)-1H-imidazo[4,5-b]pyridin-6-yl)isoxazole] |  |  |  |  | 

The next lines start with the compound.

Compound | IC50 [1] | IC50 (c-myc) | IC50 (Human AML MV-4-11 cells) | IC50 (hIL-6 mRNA) | Percent proliferation relative to DMSO, 0 h (MV4-11 cells) | Percent proliferation relative to DMSO, 24 h (MV4-11 cells) | Percent proliferation relative to DMSO, 48 h (MV4-11 cells) | Percent proliferation relative to DMSO, 72 h (MV4-11 cells) | Thermal shift: covalent binding to bromodomain protein (BET bromodomains)
Cc1noc(C)c1-c1ccc(=O)n(Cc2ccc(C3CO3)c(F)c2)c1 (stereo not drawn) [Example 1, 5-(Dimethyl-1,2-oxazol-4-yl)-1-(3-fluoro-4-(oxiran-2-yl)benzyl)pyridin-2(1H)-one] | ≤ 300 nM | 3000 to 30000 nM | 3000 to 30000 nM | 3000 to 30000 nM | 30% | 2% | 10% | 5% | bind covalently; also recorded: time-dependent formation of the covalent complex
Cc1noc(C)c1-c1ccc(=O)n(Cc2ccc(C3CO3)cc2)c1 (stereo not drawn) [Example 2, 5-(dimethyl-1,2-oxazol-4-yl)-1-{[4-(oxiran-2-yl)phenyl]methyl}-1,2-dihydropyridin-2-one] | ≤ 300 nM | 3000 to 30000 nM | 3000 to 30000 nM | 3000 to 30000 nM |  |  |  |  | 
Cc1noc(C)c1-c1cc(N)c(=O)n(Cc2ccc(C3CO3)cc2)c1 (stereo not drawn) [Example 3, 3-amino-5-(3,5-dimethylisoxazol-4-yl)-1-(4-(oxiran-2-yl)benzyl)pyridin-2(1H)-one] | ≤ 300 nM | 3000 to 30000 nM | 3000 to 30000 nM | 300 to 3000 nM |  |  |  |  | 
Cc1noc(C)c1-c1cc(N)c2ncn(Cc3ccc(C4CO4)cc3)c2c1 (stereo not drawn) [Example 4, 6-(Dimethyl-1,2-oxazol-4-yl)-1-{[4-(oxiran-2-yl)phenyl]methyl}-1H-1,3-benzodiazol-4-amine] | 300 to 3000 nM | 300 to 3000 nM | 300 to 3000 nM | 300 to 3000 nM | 41% | 0.2% | 15% | 13% | bind covalently; also recorded: time-dependent formation of the covalent complex
